According to PubChem BioAssay (NCI):
Values joined by “and” are separate entries in the source; they are usually repeats but may differ in a detail not shown here. Identical values can stand only once.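 Following 48 hours of exposure in 96-well plates, responses at five concentrations were used to interpolate endpoints linearly. The concentration for 50% growth inhibition is given as GI50. At the TGI there is no net growth.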

system: MALME-3M melanoma; assay: DTP human tumour cell line panel, 48 h

SMILES	TGI [µM]	GI50 [µM]
c1cc2n(n1)CCN2	9920	
COc1cc(Nc2c(C#N)cnc3cc(OCCCN4CCN(C)CC4)c(OC)cc23)c(Cl)cc1Cl	3.67	1.83
O=CN/C=C/c1cccc(O)c1	> 100	
Nc1ccc2c(SCc3ccc([N+](=O)[O-])cc3)c3ccccc3nc2c1	26.8	
COC1=CC(c2ccc[nH]2)=N/C1=C\c1[nH]c(C)c(C(=O)CCCCC(=O)NC(C)(C)C)c1C	3.12	1.47
O=c1ccn(C2CC(O)C(CO)O2)c(=O)[nH]1 (stereo not drawn)	> 5000	> 5000
O=C(N/C(=C/c1ccc(Cl)cc1Cl)c1nc2ccccc2s1)c1ccccc1	31.1	
CCOC(=O)c1cc2c(n1Cc1cccc(OC)c1)-c1oncc1CCC2	> 100	0.695
COc1c(O)cc2oc(-c3ccc(O)cc3)cc(=O)c2c1O	> 100	
O=c1cc(-c2ccccc2F)[nH]c2ccc(N3CCCC3)cc12	> 100	
c1csc(-c2cn3nc(-c4c[nH]c5ccccc45)sc3n2)c1	36.9	10.4
COc1cc2ccccc2oc1=O	> 100	
O=C1c2cccc(NCCN=Cc3cc([N+](=O)[O-])ccc3O)c2C(=O)c2c(NCCN=Cc3cc([N+](=O)[O-])ccc3O)cccc21	83.2	16.7
COc1ccc2c(=O)cc(-c3ccncc3)oc2c1OC	96.9	
O=C(O)c1cc2ccc3ccccc3c2oc1=O	> 100	
COC(=O)[C@@]12OC[C@]34[C@H]([C@@H](O)[C@@H]1O)[C@@]1(C)[C@H](O)C(=O)C=C(C)[C@@H]1C[C@H]3OC(=O)C(OC(C)=O)[C@@H]24 (stereo partly drawn)	0.0466	0.0151

system: CCRF-CEM leukemia; assay: DTP human tumour cell line panel, 48 h

SMILES	GI50	TGI
C[C@]12CCc3sc(NCCc4ccccc4)nc3C1=CC[C@@H]1[C@@H]2CC[C@]2(C)C(=O)CC[C@@H]12	2.63 µM	40.4 µM
CCN(Cc1ccc(F)cc1)c1ccc(CO)c(F)c1	21.5 µM	> 74.6 µM
c1ccc(CN2CCC3(CC2)SSC2(CCN(Cc4ccccc4)CC2)S3)cc1		> 100 µM
O=C(Cn1c(=O)c(-c2ccccc2)nc2ccccc21)Nc1ccc(F)cc1	6.46 µM	> 100 µM
CCOC(=O)c1c2c(n(Cc3ccc(Cl)cc3Cl)c1C)-c1nc[nH]c1C(=O)C2=O	0.651 µM	2.29 µM
COc1cccc2c1C(=O)c1c(O)c3c(c(O)c1C2=O)CC(O)(C(O)CO)CC3OC1CC(N2CCOCC2)C(O)C(C)O1 (stereo not drawn)		0.221 µM
O=C(O)C1OC1(c1cccc(Cl)c1)c1ccccc1Cl (stereo not drawn)		53.3 µM
CCCCC[C@H]1C/C=C2/C(=O)C=C[C@@H]2C/C=C\CCCC(=O)O[C@@H](CCCCC)C/C=C2/C(=O)C=C[C@@H]2C/C=C\CCCC(=O)O1	0.082 µM	1.42 µM
COC1/C=C/C(C)C(C(C)C(OC)C(C)CCC(=O)C(C)C(C/C=C/N(C)C=O)OC)OC(=O)/C=C/C=C(\C)CC(OC)CC2=CC(=O)O[C@H](C2)C(C)C(OC)CC(OC)/C=C/C(C)C(OC)C1 (stereo partly drawn)	0.0218 µM	0.0367 µM
Cc1cc(C(=C2C=CC(=Nc3ccccc3)C=C2)c2ccc(Nc3ccccc3)cc2)ccc1N	0.352 µM	> 100 µM
CNCCCn1c2c(c3ccc([N+](=O)[O-])cc3c1=O)C(=O)c1cc(OC)cnc1-2	0.0365 µM	0.625 µM
C#CC1(O)C(COP(=O)(O)OC(COCCCCCCCCCCCCCCCCCC)COP(=O)(O)OCC2OC(n3cc(F)c(=O)[nH]c3=O)CC2O)OC(n2ccc(N)nc2=O)C1O (stereo not drawn)	0.115 µM and 0.965 µM	15.3 µM and > 70.6 µM
Cc1cc(Cl)ccc1Nc1nc(C(F)(F)F)ccc1C(=O)N/N=C/c1ccc(Cl)cc1	0.384 µM	3.39 µM
COc1cc2oc3cc(=O)cc4oc(-c5ccccc5)cc(c2c2c1CCC(c1ccccc1)O2)c43 (stereo not drawn)		> 100 µM
c1cc2n(n1)CCN2		6680 µM
COc1cc(Nc2c(C#N)cnc3cc(OCCCN4CCN(C)CC4)c(OC)cc23)c(Cl)cc1Cl	1.76 µM	5.74 µM
O=CN/C=C/c1cccc(O)c1		> 100 µM
Nc1ccc2c(SCc3ccc([N+](=O)[O-])cc3)c3ccccc3nc2c1		5.15 µM
COC1=CC(c2ccc[nH]2)=N/C1=C\c1[nH]c(C)c(C(=O)CCCCC(=O)NC(C)(C)C)c1C	0.526 µM	
O=c1ccn(C2CC(O)C(CO)O2)c(=O)[nH]1 (stereo not drawn)	95.8 µM and 110 µM	838 µM
O=C(N/C(=C/c1ccc(Cl)cc1Cl)c1nc2ccccc2s1)c1ccccc1		> 100 µM
CCOC(=O)c1cc2c(n1Cc1cccc(OC)c1)-c1oncc1CCC2	2.17 µM	> 100 µM
COc1c(O)cc2oc(-c3ccc(O)cc3)cc(=O)c2c1O		65.1 µM
O=c1cc(-c2ccccc2F)[nH]c2ccc(N3CCCC3)cc12	< 0.001 µM	> 100 µM
c1csc(-c2cn3nc(-c4c[nH]c5ccccc45)sc3n2)c1	2.19 µM	27.2 µM
COc1cc2ccccc2oc1=O		> 100 µM
O=C1c2cccc(NCCN=Cc3cc([N+](=O)[O-])ccc3O)c2C(=O)c2c(NCCN=Cc3cc([N+](=O)[O-])ccc3O)cccc21	0.963 µM	9.89 µM
COc1ccc2c(=O)cc(-c3ccncc3)oc2c1OC		71.1 µM
O=C(O)c1cc2ccc3ccccc3c2oc1=O		> 100 µM

system: ACHN renal; assay: DTP human tumour cell line panel, 48 h

SMILES	GI50 [µM]	TGI [µM]
C[C@]12CCc3sc(NCCc4ccccc4)nc3C1=CC[C@@H]1[C@@H]2CC[C@]2(C)C(=O)CC[C@@H]12	1.96	3.75
CCN(Cc1ccc(F)cc1)c1ccc(CO)c(F)c1	14.9	> 100
c1ccc(CN2CCC3(CC2)SSC2(CCN(Cc4ccccc4)CC2)S3)cc1		> 100
O=C(Cn1c(=O)c(-c2ccccc2)nc2ccccc21)Nc1ccc(F)cc1	42.6	> 100
CCOC(=O)c1c2c(n(Cc3ccc(Cl)cc3Cl)c1C)-c1nc[nH]c1C(=O)C2=O	4.45	16.1
COc1cccc2c1C(=O)c1c(O)c3c(c(O)c1C2=O)CC(O)(C(O)CO)CC3OC1CC(N2CCOCC2)C(O)C(C)O1 (stereo not drawn)		0.122
O=C(O)C1OC1(c1cccc(Cl)c1)c1ccccc1Cl (stereo not drawn)		> 100
CCCCC[C@H]1C/C=C2/C(=O)C=C[C@@H]2C/C=C\CCCC(=O)O[C@@H](CCCCC)C/C=C2/C(=O)C=C[C@@H]2C/C=C\CCCC(=O)O1	0.373	0.755
COC1/C=C/C(C)C(C(C)C(OC)C(C)CCC(=O)C(C)C(C/C=C/N(C)C=O)OC)OC(=O)/C=C/C=C(\C)CC(OC)CC2=CC(=O)O[C@H](C2)C(C)C(OC)CC(OC)/C=C/C(C)C(OC)C1 (stereo partly drawn)	0.0282	
Cc1cc(C(=C2C=CC(=Nc3ccccc3)C=C2)c2ccc(Nc3ccccc3)cc2)ccc1N	0.377	1.31
CNCCCn1c2c(c3ccc([N+](=O)[O-])cc3c1=O)C(=O)c1cc(OC)cnc1-2	0.0361	0.149
C#CC1(O)C(COP(=O)(O)OC(COCCCCCCCCCCCCCCCCCC)COP(=O)(O)OCC2OC(n3cc(F)c(=O)[nH]c3=O)CC2O)OC(n2ccc(N)nc2=O)C1O (stereo not drawn)		> 100
Cc1cc(Cl)ccc1Nc1nc(C(F)(F)F)ccc1C(=O)N/N=C/c1ccc(Cl)cc1	2.48	8.71
COc1cc2oc3cc(=O)cc4oc(-c5ccccc5)cc(c2c2c1CCC(c1ccccc1)O2)c43 (stereo not drawn)		61.9
c1cc2n(n1)CCN2		5330
COc1cc(Nc2c(C#N)cnc3cc(OCCCN4CCN(C)CC4)c(OC)cc23)c(Cl)cc1Cl	0.317	9.7
O=CN/C=C/c1cccc(O)c1		84.6
Nc1ccc2c(SCc3ccc([N+](=O)[O-])cc3)c3ccccc3nc2c1		14.5
COC1=CC(c2ccc[nH]2)=N/C1=C\c1[nH]c(C)c(C(=O)CCCCC(=O)NC(C)(C)C)c1C	1.7	3.7
O=c1ccn(C2CC(O)C(CO)O2)c(=O)[nH]1 (stereo not drawn)	> 5000	> 5000
O=C(N/C(=C/c1ccc(Cl)cc1Cl)c1nc2ccccc2s1)c1ccccc1		19.5
CCOC(=O)c1cc2c(n1Cc1cccc(OC)c1)-c1oncc1CCC2	4.42	> 100
COc1c(O)cc2oc(-c3ccc(O)cc3)cc(=O)c2c1O		> 100
O=c1cc(-c2ccccc2F)[nH]c2ccc(N3CCCC3)cc12		> 100
c1csc(-c2cn3nc(-c4c[nH]c5ccccc45)sc3n2)c1	3.23	52.5
COc1cc2ccccc2oc1=O		> 100
O=C1c2cccc(NCCN=Cc3cc([N+](=O)[O-])ccc3O)c2C(=O)c2c(NCCN=Cc3cc([N+](=O)[O-])ccc3O)cccc21	5.61	> 100
COc1ccc2c(=O)cc(-c3ccncc3)oc2c1OC		> 100
O=C(O)c1cc2ccc3ccccc3c2oc1=O		> 100
COC(=O)[C@@]12OC[C@]34[C@H]([C@@H](O)[C@@H]1O)[C@@]1(C)[C@H](O)C(=O)C=C(C)[C@@H]1C[C@H]3OC(=O)C(OC(C)=O)[C@@H]24 (stereo partly drawn)	0.0502	0.28
